38 compounds from patent US9000025B2, “Autotaxin inhibitors and uses thereof” (Amira Pharmaceuticals, Inc., priority 2010, dated 2015) can be followed below.

As a reminder, the pIC50 is −log10 of the IC50, conventionally taken in molar units.

pIC50: −log10 of the molar value.

The target of this assay is T1, autotaxin (ATX) (Homo sapiens, UniProt Q13822).
T1 construct: conditioned medium from the human melanoma cell line, MDA-MB-4355, which endogenously expresses autotaxin; host or cells: MDA-MB-435S human melanoma cells; serum-free conditioned medium, concentrated 20-fold
The assay can be described thus: Native Autotaxin Choline Release Assay. The settings on record: autotaxin in conditioned medium from human melanoma cell line; choline released from LPC; read-out: MDA-MB-435S Assay IC50. The class given is biochemical. The protocol:
ATX activity is determined by measuring the amount of choline realeased from the substrate, lyosphophatidylcholine (LPC). […] After reaching confluency, the cells are washed twice with phosphate-buffered saline (PBS) then cultured for 48 hours in phenol-red free, serum-free DMEM containing sodium pyruvate. […] 100 μl of a color mix which contains 4.5 mM 4-aminoantipyrine, 2.7 mM N-ethyl-N-(2-hydroxy-3-sulfopropyl)-m-toluidine, 21 units/ml horseradish peroxidase and 3 units/ml choline oxidase in 50 mM Tris, pH 8, 4.5 mM MgCl2 is added and the incubation continued at 37° C. for 10 minutes before reading the absorbance at 555 nm. The concentration of released choline in the sample is determined from a choline standard curve and is equal to the concentration of LPA produced.
In the case of `Cc1[nH]c2ccccc2c1Sc1cccc(CC(=O)O)c1` [Compound 1-1, [3-(2-Methyl-1H-indol-3-ylsulfanyl)-phenyl]-acetic acid], the pIC50 is under 6.00. On to `Cc1[nH]c2cc(F)ccc2c1Sc1cccc(CC(=O)O)c1` [Compound 1-2, [3-(6-Fluoro-2-methyl-1H-indol-3-ylsulfanyl)-phenyl]-acetic acid], for which the pIC50 is under 6.00. The result for `COc1ccc2c(Sc3cccc(CC(=O)O)c3)c(C)[nH]c2c1` [Compound 1-3, [3-(6-Methoxy-2-methyl-1H-indol-3-ylsulfanyl)-phenyl]-acetic acid] reads under 6.00; that for `Cc1c(Sc2cccc(CC(=O)O)c2)c2ccccc2n1C` [Compound 1-4, [3-(1,2-Dimethyl-1H-indol-3-ylsulfanyl)-phenyl]-acetic acid], under 6.00; that for `Cc1c(Sc2cccc(CC(=O)O)c2)c2ccc(Cl)cc2n1C` [Compound 1-5, [3-(6-Chloro-1,2-dimethyl-1H-indol-3-ylsulfanyl)-phenyl]-acetic acid], under 6.00. The result for `Cc1c(Sc2cccc(C(=O)O)c2)c2ccc(Cl)cc2n1C` [Compound 1-6, 3-(6-Chloro-1,2-dimethyl-1H-indol-3-ylsulfanyl)-benzoic acid] reads under 6.00; that for `Cc1c(Sc2cccc(CC(=O)O)c2)c2ccc(Cl)cc2n1CC(C)C` [Compound 1-7, [3-(6-Chloro-1-isobutyl-2-methyl-1H-indol-3-ylsulfanyl)-phenyl]-acetic acid], under 6.00; that for `COCCn1c(C)c(Sc2cccc(CC(=O)O)c2)c2ccc(Cl)cc21` [Compound 1-8, {3-[6-Chloro-1-(2-methoxy-ethyl)-2-methyl-1H-indol-3-ylsulfanyl]-phenyl}-acetic acid], 6.00 to 6.52. The value for `Cc1c(Sc2cccc(CC(=O)O)c2)c2ccccc2n1Cc1ccccc1` [Compound 1-9, [3-(1-Benzyl-2-methyl-1H-indol-3-ylsulfanyl)-phenyl]-acetic acid] was under 6.00. For `Cc1c(Sc2cccc(C(=O)O)c2)c2ccc(Br)cc2n1Cc1ccccc1` [Compound 1-10, 3-(1-Benzyl-6-bromo-2-methyl-1H-indol-3-ylsulfanyl)-benzoic acid], the pIC50 is 6.00 to 6.52.

As to `Cc1c(Sc2cccc(C(=O)O)c2)c2ccc(-c3ccccc3)cc2n1Cc1ccccc1` [Compound 1-11, 3-(1-Benzyl-2-methyl-6-phenyl-1H-indol-3-ylsulfanyl)-benzoic acid], the pIC50 was under 6.00. As to `Cc1c(Sc2cccc(C(=O)O)c2)c2ccc(-c3cccnc3)cc2n1Cc1ccccc1` [Compound 1-12, 3-(1-Benzyl-2-methyl-6-pyridin-3-yl-1H-indol-3-ylsulfanyl)-benzoic acid], the negative-log IC50 (pIC50) is under 6.00. The value for `Cc1c(Sc2cccc(C(=O)O)c2)c2ccc(Cc3ccccc3)cc2n1Cc1ccccc1` [Compound 1-13, 3-(1,6-Dibenzyl-2-methyl-1H-indol-3-ylsulfanyl)-benzoic acid] was under 6.00. The result for `Cc1c(Sc2cccc(CC(=O)O)c2)c2ccc(Cl)cc2n1Cc1ccccc1` [Compound 1-14, [3-(1-Benzyl-6-chloro-2-methyl-1H-indol-3-ylsulfanyl)-phenyl]-acetic acid] reads under 6.00.

Take `Cc1c(Sc2cccc(C(=O)O)c2)c2ccc(Cl)cc2n1Cc1ccccc1` [Compound 1-15, 3-(1-Benzyl-6-chloro-2-methyl-1H-indol-3-ylsulfanyl)-benzoic acid]: the pIC50 was 6.00 to 6.52.

For the compound `Cc1c(Oc2cccc(CC(=O)O)c2)c2ccc(Cl)cc2n1Cc1ccccc1` [Compound 1-16, [3-(1-Benzyl-6-chloro-2-methyl-1H-indol-3-yloxy)-phenyl]-acetic acid], the pIC50 was under 6.00. As for `Cc1c(Sc2cccc(CCC(=O)O)c2)c2ccc(Cl)cc2n1Cc1ccccc1` [Compound 1-17, 3-[3-(1-Benzyl-6-chloro-2-methyl-1H-indol-3-ylsulfanyl)-phenyl]-propionic acid], the pIC50 is under 6.00. The value for `Cc1c(Sc2cccc(C(=O)O)c2)c2ccc(Cl)cc2n1Cc1ccc(F)cc1` [Compound 1-18, 3-[6-Chloro-1-(4-fluoro-benzyl)-2-methyl-1H-indol-3-ylsulfanyl]-benzoic acid] was under 6.00; that for `Cc1c(Sc2cccc(C(=O)O)c2)c2ccc(Cl)cc2n1C(C)c1ccccc1` (centres unmarked) [Compound 1-19, 3-[6-Chloro-2-methyl-1-(1-phenyl-ethyl)-1H-indol-3-ylsulfanyl]-benzoic acid] was under 6.00; that for `Cc1c(Sc2cccc(C(=O)O)c2)c2ccc(Cl)cc2n1Cc1ccc2ccccc2c1` [Compound 1-20, 3-(6-Chloro-2-methyl-1-naphthalen-2-ylmethyl-1H-indol-3-ylsulfanyl)-benzoic acid] was under 6.00. The value for `Cc1c(Sc2cccc(C(=O)O)c2)c2ccc(Cl)cc2n1Cc1cccnc1` [Compound 1-21, 3-(6-Chloro-2-methyl-1-pyridin-3-ylmethyl-1H-indol-3-ylsulfanyl)-benzoic acid] was over 6.52. The result for `Cc1c(Sc2cccc(C(=O)O)c2)c2ccc(Cl)cc2n1Cc1ccc(C(F)(F)F)nc1` [Compound 1-22, 3-[6-Chloro-2-methyl-1-(6-trifluoromethyl-pyridin-3-ylmethyl)-1H-indol-3-ylsulfanyl]-benzoic acid] reads under 6.00; that for `Cc1c(Sc2cccc(C(=O)O)c2)c2ccc(Cl)cc2n1Cc1ccncc1` [Compound 1-23, 3-(6-Chloro-2-methyl-1-pyridin-4-ylmethyl-1H-indol-3-ylsulfanyl)-benzoic acid], over 6.52; that for `Cc1c(Sc2cccc(C(=O)O)c2)c2ccc(Cl)cc2n1Cc1ccccn1` [Compound 1-24, 3-(6-Chloro-2-methyl-1-pyridin-2-ylmethyl-1H-indol-3-ylsulfanyl)-benzoic acid], 6.00 to 6.52. For the compound `COc1c(C)cnc(Cn2c(C)c(Sc3cccc(C(=O)O)c3)c3ccc(Cl)cc32)c1C` [Compound 1-25, 3-[6-Chloro-1-(4-methoxy-3,5-dimethyl-pyridin-2-ylmethyl)-2-methyl-1H-indol-3-ylsulfanyl]-benzoic acid], the negative logarithm of the IC50 (pIC50) is over 6.52. The result for `Cc1c(Sc2cccc(C(=O)O)c2)c2ccc(Cl)cc2n1-c1ccc(-c2ccccc2)cc1` [Compound 1-27, 3-(1-Biphenyl-4-yl-6-chloro-2-methyl-1H-indol-3-ylsulfanyl)-benzoic acid] reads 6.00 to 6.52.

With `Cc1c(Sc2cccc(C(=O)O)c2)c2ccc(Cl)cc2n1-c1cccc(-c2ccccc2)c1` [Compound 1-28, 3-(1-Biphenyl-3-yl-6-chloro-2-methyl-1H-indol-3-ylsulfanyl)-benzoic acid], the pIC50 is 6.00 to 6.52.

Take `Cc1c(Sc2cccc(C(=O)O)c2)c2ccc(Cl)cc2n1-c1cccc(Cl)c1` [Compound 1-29, 3-[6-Chloro-1-(3-chloro-phenyl)-2-methyl-1H-indol-3-ylsulfanyl]-benzoic acid]: the pIC50 is over 6.52. The result for `Cc1c(Sc2cccc(C(=O)O)c2)c2ccc(Cl)cc2n1-c1cccnc1` [Compound 1-30, 3-(6-Chloro-2-methyl-1-pyridin-3-yl-1H-indol-3-ylsulfanyl)-benzoic acid] reads over 6.52; that for `Cc1c(Sc2cccc(C(=O)O)c2)c2ccc(Cl)cc2n1-c1ccccn1` [Compound 1-31, 3-(6-Chloro-2-methyl-1-pyridin-2-yl-1H-indol-3-ylsulfanyl)-benzoic acid], 6.00 to 6.52; that for `Cc1c(Sc2cccc(C(=O)O)c2)c2ccc(Cl)cc2n1-c1ccc(C(F)(F)F)nc1` [Compound 1-32, 3-[6-Chloro-2-methyl-1-(6-trifluoromethyl-pyridin-3-yl)-1H-indol-3-ylsulfanyl]-benzoic acid], 6.00 to 6.52.

With `COc1ccc(-n2c(C)c(Sc3cccc(C(=O)O)c3)c3ccc(Cl)cc32)cn1` [Compound 1-33, 3-[6-Chloro-1-(6-methoxy-pyridin-3-yl)-2-methyl-1H-indol-3-ylsulfanyl]-benzoic acid], the pIC50 was over 6.52. With `Cc1ccc(-n2c(C)c(Sc3cccc(C(=O)O)c3)c3ccc(Cl)cc32)cn1` [Compound 1-34, 3-[6-Chloro-2-methyl-1-(6-methyl-pyridin-3-yl)-1H-indol-3-ylsulfanyl]-benzoic acid], the pIC50 was over 6.52. The value for `Cc1c(Sc2cccc(CC(=O)O)c2)c2ccc(Cl)cc2n1-c1cccnc1` [Compound 1-35, [3-(6-Chloro-2-methyl-1-pyridin-3-yl-1H-indol-3-ylsulfanyl)-phenyl]-acetic acid] was over 6.52.

For the compound `CCOc1ccc(-n2c(C)c(Sc3cccc(C(=O)O)c3)c3ccc(Cl)cc32)cn1` [Compound 1-36, 3-[6-Chloro-1-(6-ethoxy-pyridin-3-yl)-2-methyl-1H-indol-3-ylsulfanyl]-benzoic acid], the pIC50 was over 6.52. Regarding `COc1cncc(-n2c(C)c(Sc3cccc(C(=O)O)c3)c3ccc(Cl)cc32)c1` [Compound 1-37, 3-[6-Chloro-1-(5-methoxy-pyridin-3-yl)-2-methyl-1H-indol-3-ylsulfanyl]-benzoic acid], the negative-log IC50 (pIC50) is over 6.52. Regarding `Cc1c(Sc2cccc(C(=O)O)c2)c2ccc(Cl)cc2n1-c1cncnc1` [Compound 1-38, 3-(6-Chloro-2-methyl-1-pyrimidin-5-yl-1H-indol-3-ylsulfanyl)-benzoic acid], the pIC50 was over 6.52. Take `Cc1c(Sc2cccc(C(=O)O)c2)c2ccc(Cl)cc2n1-c1cnn(C)c1` [Compound 1-39, 3-[6-Chloro-2-methyl-1-(1-methyl-1H-pyrazol-4-yl)-1H-indol-3-ylsulfanyl]-benzoic acid]: the pIC50 is over 6.52.
